We go through four compounds from US6019959A, “Oligomeric compounds that contain perfluoroalkyl, process for their production, and their use in NMR diagnosis” (Schering Aktiengesellschaft, priority 1998, dated 2000).

Entries after “also recorded” stand apart in the source; their conditions may differ. Where two headings read alike, the source gives them in different places.

The nature of series [1]: Determination of the T1-relaxivity with a Minispec pc 20 in human plasma. The following applies: for R^1 (T^1-relaxivity): 0.47 T (20 MHz), 37° C., human plasma, normalized to one metal atom; for relaxivity r1,plasm: plasma. The format is physicochemical. As for the experimental part: Determination of the T^1 -Relaxivity of Selected Compounds
The relaxivity of the following compounds was determined
with a Minispec pc 20 (20 MHz, 0.47 T) at 37° C. in human plasma
and compared to that of Gd-DTPA-polylysine and Magnevist^(R) as
comparison substances. Since the substances according to the
invention contain more than one metal atom, the relaxivity was
normalized to one metal atom for purposes of comparison.

The nature of series [2]: Lymph node concentration in guinea pigs after subcutaneous administration (ICP-AES). As to conditions: 10 μmol/kg s.c., MW±SD, n=3. The format is in vivo, guinea pig. The source says: The compounds according to the invention meet all of the requirements that are imposed by contrast media in indirect NMR lymphography: good local compatibility, quick removal from the injection site, quick and as complete an elimination as possible from the entire organism. They also show a high concentration over several lymph node stations and thus allow relevant diagnostic assessments. Thus, in the guinea pig model, a high concentration over several lymph node stations (popliteal, inguinal, iliac) after s.c. administration (2.5-10 μmol/kg of body weight, injection in the interdigital spaces of the hind paws) was shown. In especially suitable cases, gadolinium concentrations of, respectively, ≥200 or ≥300 μmol/l were thus obtained in the second (inguinal) and third (iliac) stations. Lymph node concentrations up to 1,000 μmol/l can usually be obtained with the compounds according to the invention.
The gadolinium complex of Example 19 was studied 30 minutes/90 minutes after subcutaneous administration (10 μmol of total gadolinium/kg of body weight, hind paw s.c.) to stimulated guinea pigs (complete Freund adjuvant; in each case 0.1 ml in the right and left upper and lower legs; 2 weeks before administration of the test substance) to determine their lymph node concentration in three successive lymph node stations (popliteal, inguinal, iliac). In this case, the results that are listed below (determination of gadolinium concentration using ICP-AES) are obtained:
Gd-Concentration [μmol/l] in three successive lymph node stations 30 and 90 minutes after interstitial administration of 10 μmol/kg (MW±SD, n=3)

Series [3] can be described thus: Retention of the opacifying metal at the injection site. The following applies: 10 μmol/kg s.c., MW±SD, n=3. The format is in vivo, guinea pig. An excerpt: After s.c. administration of 10 μmol of total gadolinium (Example 19)/kg of body weight in the guinea pig's paw, the retention of metal at the injection site was studied at different times.
Gd-Concentration [% dose] at the Administration Site (Paw), After Interstitial Administration of 10 μmol/kg (MW±SD, n=3)

Series [4] is described as follows: Elimination of the contrast medium after s.c. administration (metal retention in organs). The format is in vivo, guinea pig. As to conditions: 7 d p.i., 10 μmol/kg s.c., MW±SD, n=2. The source says: After subcutaneous administration of 10 μmol of total gadolinium (Example 19)/kg of body weight in the hind paw of the guinea pig, the retention of metal in the liver, in the kidneys and in the spleen was examined 7 days after administration.
Gd Concentration [% of Dose] in the Liver, Kidneys, Spleen (7 d p.i.) After Interstitial Administration of 10 μmol/kg (MW±SD, n=2)

Series [5] can be described thus: Blood elimination kinetics after one-time intravenous administration. The format is in vivo, rats. As to conditions: for Distribution volume Vss (MEAN) / Elimination half-life tβ (MEAN) / Total clearance CLtot (MEAN) / tα (MEAN): two-compartment model, n=3; for distribution volume in comparison to Dy-DTPA / elimination from the blood in comparison to Dy-DTPA: i.v., rats. As for the experimental part:
For this purpose, after one-time intravenous administration (via a caudal vein) of the substances (dose: ≈100 μmol of metal per kg of body weight), the substance concentration in the blood (based on the Gd or Dy content) was determined over a period of up to 120 minutes p.i. using ICP-AES. The pharmacokinetic parameters: distribution volume (Vss), total clearance (CLtot) and elimination half-life (tb) were calculated with a special computer program (TOPFIT 2.0; Thomae, Schering, Godecke), whereby a two-compartment distribution model was used as a basis.
The Gd and Dy contents in the blood were determined using ICP-AES.
For this purpose, after one-time intravenous administration (via a caudal vein) of the substances (dose: ≈100 μmol of metal per kg of body weight), the substance concentration in the blood (based on the metal content) was determined over a period of up to 120 minutes p.i. using ICP-AES. The pharmacokinetic parameters: distribution volume (Vss), total clearance (CLtot) and elimination half-life (tb) were calculated with a special computer program (TOPFIT 2.0; Thomae, Schering, Godecke), whereby a two-compartment distribution model was used as a basis.

A short description of series [6]: In-vivo comparison with an intravascular and an extracellular contrast medium in blocked kidneys (diffusibility). Set-up: species or system rats. As to conditions: for Percentage of the dose that remains in the blood space: i.v., blocked renal vessels, compound 2 set at 100%. As to the method:
As test animals, three 250 g male (Schering-SPF) rats were used. The renal vessels in the animals were blocked to prevent renal elimination and, assuming that fecal elimination is negligible, to obtain a measure of the diffusibility of the formulation according to the invention from the blood into the surrounding tissue. 0.5 ml (in each case 10 mmol/l) of the following contrast medium solution was intravenously administered per animal: a mixture consisting of 1 part each of the compound of Example 1g, named compound 1 below, of intravascular contrast medium Eu-DTPA-albumin, named compound 2 below and of extracellular contrast medium Dy-DTPA, named compound 3 below. Via a catheter in the common carotid artery, blood samples were taken at the following times: 15, 30, 45, 60, 90 seconds; 3, 5, 10, 15 minutes p.i. In the blood samples that were obtained, in each case the concentrations of gadolinium (Gd), europium (Eu) and dysprosium (Dy) were measured in parallel using atom emission spectrometry (ICP-AES). The proportion of the intravascular contrast medium compound 2 (Eu) that remains in the blood space was set at 100%. It was possible to compare the proportion of the formulation according to the invention of compound 1 (Gd) and compound 3 (Dy, extracellular comparison substance) that remained in the blood space by the different labeling in the same animal, and the proportion was set as a percentage of the concentration of compound 2.

Series [7] is described as follows: Contrast-medium-supported MR angiography. The format is in vivo, rats. The following applies: one-time i.v. 50 or 100 μmol/kg, 2.0 tesla. As for the experimental part:
The studies on contrast-medium-supported MR angiography were performed on an experimental MRT system (SISCO SIS 85, 2.0 tesla) with a 3 D FLASH technique (10/2.6/40°).
To determine the effectiveness of contrast media for visualizing blood vessels, anesthetized (Rompun®+Ketavet®, 1+1, v/v; ≈1 ml per kg of body weight, i.m.) rats (Han. Wistar; ≈200 g of body weight) were studied by MR tomography.
The MIP (maximum intensity projection) images were calculated from the 3 D FLASH experiments before (left) and directly after one-time i.v. administration of 50 μmol/kg (center) or 100 μmol/kg (right) of the substance of Example 1g.

For series [8] the following is noted: rat, in vivo; cited from earlier work.
For series [9] the following is noted: cited from earlier work.
Setting [10] is: Table 4, i.v. ≈100 μmol metal/kg.
Setting [11] is: Table 3, i.v. ≈100 μmol metal/kg.

“1,4,7-Tris{1,4,7-tris(N-carboxylatomethyl)-10-[N-(4,7-diaza-3,6,9-trioxo)-nonane-2,9-diyl]-1,4,7,10-tetraazacyclododecane, Gd complex}-10-[N-acetyl-(2-amino-N-ethyl-N-perfluoro-octylsulfonyl)]-1,4,7,10-tetraazacyclododecane [Example 19]”: the “R^1 (T^1-relaxivity)” value in series [1] amounted to 21.4 L/mmol/s. Also, the “relaxivity r1,plasm” value in series [1] was “≈ 19.5 l*mmol^-1 *s^-1”. Also, the concentration in series [2] (30 minutes p.i., read-out: Gd concentration, blood) came to 24 ± 3 µM; in [2] (30 minutes p.i., read-out: Gd concentration, iliac lymph nodes), 50 ± 18 µM; in series [2] (30 minutes p.i., read-out: Gd concentration, inguinal profund lymph nodes) it was 43 ± 41 µM; in series [2] (30 minutes p.i., read-out: Gd concentration, popliteal lymph nodes) it was 345 ± 319 µM; in [2] (30 minutes p.i., read-out: Gd concentration, urine), 261 ± 167 µM; in series [2] (90 minutes p.i., read-out: Gd concentration, blood) it was 25 ± 4 µM. Also, the concentration in [2] (90 minutes p.i., read-out: Gd concentration, iliac lymph nodes) turned out to be 20 ± 8 µM; in series [2] (90 minutes p.i., read-out: Gd concentration, inguinal profund lymph nodes), 9 ± 2 µM; in series [2] (90 minutes p.i., read-out: Gd concentration, popliteal lymph nodes), 75 ± 20 µM; in series [2] (90 minutes p.i., read-out: Gd concentration, urine), 348 ± 119 µM. Also, the “Gadolinium concentration at the injection site (paw)” value in series [3] (30 minutes p.i.) was 48.4 ± 10.4 % of dose; in series [3] (90 minutes p.i.) it was 8.0 ± 1.7 % of dose; in series [3] (7 days p.i.), 0.7 ± 0.6 % of dose. In series [4], the “Gadolinium content in the organs, kidneys” value was found to be 0.06 ± 0.04 % dose. In [4], the “Gadolinium content in the organs, liver” value is reported as 0.09 ± 0.09 % dose. Further, the “Gadolinium content in the organs, spleen” value in series [4] is given as 0.00 ± 0.01 % dose. For the same compound, the “Distribution volume Vss (MEAN)” value in series [5] (setting [10]) is 0.12 Ukg. Besides, the “Elimination half-life tβ (MEAN)” value in series [5] (setting [10]) is 1.49 h. Also, the “Total clearance CLtot (MEAN)” value in [5] (setting [10]) was found to be 0.94 mL·kg·min. The “tα (MEAN)” value in [5] (setting [10]) worked out at 2.52 min. For the same compound, the “distribution volume in comparison to Dy-DTPA” value in series [5] is given as “smaller distribution volume”. In series [5], the “elimination from the blood in comparison to Dy-DTPA” value is “significantly slower elimination from the blood”.

With `CC(C(=O)NCC(=O)NCC(=O)N1CCN(C(=O)CNC(=O)CNC(=O)C(C)N2CCN(CC(=O)[O-])CCN(CC(=O)[O-])CCN(CC(=O)[O-])CC2)CCN(C(=O)COCCC(F)(F)C(F)(F)C(F)(F)C(F)(F)C(F)(F)C(F)(F)C(F)(F)C(F)(F)F)CCN(C(=O)CNC(=O)CNC(=O)C(C)N2CCN(CC(=O)[O-])CCN(CC(=O)[O-])CCN(CC(=O)[O-])CC2)CC1)N1CCN(CC(=O)[O-])CCN(CC(=O)[O-])CCN(CC(=O)[O-])CC1.[Gd+3].[Gd+3].[Gd+3]` (centres unmarked) [Example 1g, 1,4,7-Tris{,1,4,7-tris(N-carboxylatomethyl)-10-(N-1-methyl-3,6-diaza-2,5,8-trioxo-octane-1,8-diyl)-1,4,7,10-tetraazacyclododecane, Gdcomplex}-10-(N-2H,2H,4H,4H,5H,5H-3-oxa-perfluoro-tridecanoyl)-1,4,7,10-tetraazacyclododecane], in [1], the “R^1 (T^1-relaxivity)” value was 19.5 L/mmol/s and the “relaxivity r1,plasm” value was “≈ 19.5 l*mmol^-1 *s^-1”. For the same compound, the “Percentage of the dose that remains in the blood space” value (from here on “Percentage of the dose that remains”) in [6] (30 seconds p.i.) came to 84%. Besides, the “Percentage of the dose that remains” value in [6] (3 minutes p.i.) is listed as 62%. For the same compound, the “Percentage of the dose that remains” value in series [6] (10 minutes p.i.) came to 44%. The “diffusibility from the vascular space into the surrounding tissue” value in [6] (compared with compound 2 and compound 3, listed as compound 1) is recorded as “slower during the entire test period; also recorded: significantly lower compared to the free diffusible, extracellular compound 3”. Besides, in series [5] (setting [11]), the “Distribution volume Vss (MEAN)” value amounted to 0.09 Ukg, the “Elimination half-life tβ (MEAN)” value was found to be 2.813 h, the “Total clearance CLtot (MEAN)” value is 0.41 mU (min*kg) and the “tα (MEAN)” value is on record as 4.06 min. Besides, in [5], the “distribution volume in comparison to Dy-DTPA” value is on record as “smaller distribution volume” and the “elimination from the blood in comparison to Dy-DTPA” value is “significantly slower elimination from the blood”. Also, the “signal in the blood vessels in MR angiography (3 D FLASH, MIP)” value in series [7] is “pronounced signal increase in the blood vessels”.

In the case of Gd-DTPA-polylysine [reference compound], in series [1], the “R^1 (T^1-relaxivity)” value came to 16.8 L/mmol/s. Moreover, in [8], the excretion route result is “excreted through the kidneys unaltered by glomerular filtration”.

Turning to albumin-Gd-DTPA, in [9] (24 hours after intravenous injection), the “concentration in the liver tissue” value was ~30 % of the dose. Besides, the dose eliminated in series [9] (within 24 hours) is listed as 20 % of the dose.
